Assay results from patent US20230271940A1, “HETEROARYL SUBSTITUTED 3-(1-OXOISOINDOLIN-2-YL)PIPERIDINE-2,6-DIONE DERIVATIVES AND USES THEREOF” (Novartis AG, priority 2020, published 2023).

biological target: IKZF1 (Homo sapiens, UniProt Q13422+Q96SW2); test: Prolabel quantification of IKZF1 protein levels in 293GT cells; type: cell-based; conditions: Prolabel assay
Description: (§1) The Prolabel system from DiscoverX was used to develop high-throughput and quantitative assays to measure changes in IKZF1, IKZF2 and GSPT1 protein levels in response to compounds. The prolabel tag was derived from the alpha fragment of beta galactosidase and has the following protein sequence: mssnslavvlqadwenpgvtqlnrlaahppfaswrnseeartdipsqqlislnge. The complementary fragment of beta-galactosidase (from DiscoverX), is added to the prolabel tag to form an active beta galactosidase enzyme whose activity can be precisely measured. In this way, the levels of a fusion protein with the prolabel tag can be quantified in cell lysates.
Lentiviral vectors, based on the Invitrogen pLenti6.2/V5 DEST backbone, were constructed that placed the prolabel tag upstream of IKZF1, IKZF2 or GSPT1 and expressed the fusion protein from a CMV promoter. […]
The levels of prolabel tagged fusion proteins in compound treated cell lines were measured as follows: […]
Day 3, Plates were removed from the incubator and allowed to equilibrate at r.t. for 30 minutes. […] Plates were incubated at r.t. for three hours and luminescence was read using an Envision reader (Perkin Elmer) Data was analyzed and visualized using the Spotfire software package.

Sequence of IKZF1 (Q13422 whole entry, the tested form may be a part): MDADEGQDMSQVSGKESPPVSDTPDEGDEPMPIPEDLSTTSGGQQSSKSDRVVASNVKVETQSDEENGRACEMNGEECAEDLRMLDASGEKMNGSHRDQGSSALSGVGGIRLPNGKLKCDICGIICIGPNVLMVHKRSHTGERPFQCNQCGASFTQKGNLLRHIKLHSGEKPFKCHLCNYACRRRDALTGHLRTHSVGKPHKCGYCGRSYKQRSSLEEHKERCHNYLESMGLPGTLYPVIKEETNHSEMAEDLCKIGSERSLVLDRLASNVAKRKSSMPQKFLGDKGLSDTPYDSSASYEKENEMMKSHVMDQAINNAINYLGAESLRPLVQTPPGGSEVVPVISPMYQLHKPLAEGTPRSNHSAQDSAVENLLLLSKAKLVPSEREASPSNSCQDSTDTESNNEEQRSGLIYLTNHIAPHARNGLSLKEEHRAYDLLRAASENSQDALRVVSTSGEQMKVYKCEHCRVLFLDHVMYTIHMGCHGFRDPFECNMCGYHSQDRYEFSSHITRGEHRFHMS
Sequence of IKZF1 (Q96SW2 whole entry, the tested form may be a part): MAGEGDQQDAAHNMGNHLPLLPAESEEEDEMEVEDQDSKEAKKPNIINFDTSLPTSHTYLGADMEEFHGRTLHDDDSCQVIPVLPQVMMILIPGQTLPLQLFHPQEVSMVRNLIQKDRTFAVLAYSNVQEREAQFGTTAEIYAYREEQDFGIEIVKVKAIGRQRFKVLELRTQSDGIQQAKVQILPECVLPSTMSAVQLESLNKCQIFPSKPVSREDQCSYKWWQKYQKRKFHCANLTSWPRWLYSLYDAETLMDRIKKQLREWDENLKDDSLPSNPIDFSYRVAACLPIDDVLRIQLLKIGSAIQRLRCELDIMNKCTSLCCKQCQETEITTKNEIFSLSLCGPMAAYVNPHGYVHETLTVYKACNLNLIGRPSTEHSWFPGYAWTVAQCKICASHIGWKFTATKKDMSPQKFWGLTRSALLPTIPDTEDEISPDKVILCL
Sequence of IKZF1 (Q16531 whole entry partner, the tested form may be a part): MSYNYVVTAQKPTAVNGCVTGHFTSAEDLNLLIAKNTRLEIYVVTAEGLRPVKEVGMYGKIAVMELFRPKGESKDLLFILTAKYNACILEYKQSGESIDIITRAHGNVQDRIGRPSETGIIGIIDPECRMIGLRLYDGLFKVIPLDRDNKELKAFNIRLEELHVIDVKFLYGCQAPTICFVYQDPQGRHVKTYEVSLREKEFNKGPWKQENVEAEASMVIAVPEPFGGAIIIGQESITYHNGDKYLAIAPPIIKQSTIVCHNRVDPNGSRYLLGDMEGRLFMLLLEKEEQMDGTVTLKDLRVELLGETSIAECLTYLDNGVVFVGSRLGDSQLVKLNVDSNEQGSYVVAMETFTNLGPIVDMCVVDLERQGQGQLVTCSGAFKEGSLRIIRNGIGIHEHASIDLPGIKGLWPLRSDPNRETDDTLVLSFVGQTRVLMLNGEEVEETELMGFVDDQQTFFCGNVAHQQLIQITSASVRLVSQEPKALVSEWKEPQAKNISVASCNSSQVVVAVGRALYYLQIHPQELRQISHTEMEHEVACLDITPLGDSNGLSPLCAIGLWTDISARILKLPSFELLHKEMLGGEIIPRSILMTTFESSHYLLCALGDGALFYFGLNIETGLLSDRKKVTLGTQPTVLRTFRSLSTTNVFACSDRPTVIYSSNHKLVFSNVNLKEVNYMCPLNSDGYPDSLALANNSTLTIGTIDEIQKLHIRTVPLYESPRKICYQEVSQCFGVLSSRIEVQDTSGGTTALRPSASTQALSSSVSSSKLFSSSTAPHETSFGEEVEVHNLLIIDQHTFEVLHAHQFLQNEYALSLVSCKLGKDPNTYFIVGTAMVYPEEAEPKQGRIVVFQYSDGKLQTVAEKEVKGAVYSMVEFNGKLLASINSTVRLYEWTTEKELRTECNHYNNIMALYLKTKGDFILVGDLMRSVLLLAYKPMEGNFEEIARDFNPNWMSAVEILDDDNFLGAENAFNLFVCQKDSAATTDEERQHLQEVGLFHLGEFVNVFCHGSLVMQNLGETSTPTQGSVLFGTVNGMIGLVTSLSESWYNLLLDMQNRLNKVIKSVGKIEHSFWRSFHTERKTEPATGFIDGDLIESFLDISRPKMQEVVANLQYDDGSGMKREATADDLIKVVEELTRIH

For `Nc1cccc2c1C(=O)N(C1CCC(=O)NC1=O)C2=O` (stereo not shown) [Control, Pomalidomide], the “IKZF1 degradation @ 10 μM” value was “(80%”.

biological target: IKZF2 (Homo sapiens, UniProt Q96SW2+Q9UKS7); test: Prolabel quantification of IKZF2 protein levels in 293GT cells; type: cell-based; conditions: not given
Sequence (Q9UKS7 whole entry): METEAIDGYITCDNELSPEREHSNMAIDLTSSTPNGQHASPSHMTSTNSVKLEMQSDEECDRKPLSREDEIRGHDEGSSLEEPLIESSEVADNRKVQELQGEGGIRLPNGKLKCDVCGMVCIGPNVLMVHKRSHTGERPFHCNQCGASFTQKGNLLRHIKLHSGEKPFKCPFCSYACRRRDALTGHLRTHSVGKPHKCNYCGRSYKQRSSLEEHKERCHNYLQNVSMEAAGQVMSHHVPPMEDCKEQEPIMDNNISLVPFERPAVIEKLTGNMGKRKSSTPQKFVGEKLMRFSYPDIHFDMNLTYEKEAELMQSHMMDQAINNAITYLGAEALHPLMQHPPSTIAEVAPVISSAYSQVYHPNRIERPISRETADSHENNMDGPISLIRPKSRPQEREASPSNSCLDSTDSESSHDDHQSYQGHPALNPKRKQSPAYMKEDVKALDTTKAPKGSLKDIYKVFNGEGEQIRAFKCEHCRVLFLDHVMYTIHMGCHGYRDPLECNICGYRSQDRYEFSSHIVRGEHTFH
Sequence (Q96SW2 whole entry): as the sequence (Q96SW2 whole entry, the tested form may be a part) above
Sequence (Q16531 whole entry partner): as the sequence (Q16531 whole entry partner, the tested form may be a part) above
Description: as §1
Lentiviral vectors, based on the Invitrogen pLenti6.2/V5 DEST backbone, were constructed that placed the prolabel tag upstream of IKZF1, IKZF2 or GSPT1 and expressed the fusion protein from a CMV promoter.
To ensure moderate and consistent expression of the prolabel fusion proteins across all cells in the population, stable cell lines were constructed from cells expressing a single copy of the construct. Lentivirus packaged with the constructs was made using the Virapower kit from Invitrogen.
The levels of prolabel tagged fusion proteins in compound treated cell lines were measured as follows:
Day 1, Cells were diluted to 1.0×10^6 cells/ml in normal growth medium. 17.5 μL of cells were plated in each well of a solid white 384 well plate. Plates were incubated overnight in a 37° C. tissue culture incubator.
Day 2, Serial dilutions of compounds were made in 384 well plates from 10 mM stocks. 15 μL of DMSO was added to each well of a 384 well plate. In the first column, 15 μL of stock compound was added. The solution was mixed and 15 μL was transferred to the next column. This was repeated until 20 two-fold dilutions were prepared. 2.5 μL of diluted compounds were transferred into 60 μL of cell culture medium in another 384 well plate, and mixed well. […] of this mixture was added to the plated cells. The final DMSO concentration was 0.5% and the highest concentration of compound was 50 μM. Plates were incubated overnight (e.g., about 14 h, 18 h, or 24 h) in a 37° C. tissue culture incubator.
Day 3, Plates were removed from the incubator and allowed to equilibrate at r.t. for 30 minutes. Prolabel substrate (DiscoverX PathHunter Prolabel Detection Kit, User manual: 93-0180) was added as described by the manufacturers protocols. Plates were incubated at r.t. for three hours and luminescence was read using an Envision reader (Perkin Elmer) Data was analyzed and visualized using the Spotfire software package.

Compared with `COc1cc(-c2ccc3c(c2)CN(C2CCC(=O)NC2=O)C3=O)nn1Cc1ccccc1` (stereo not shown) [Compound I-40, 3-(5-(1-benzyl-5-methoxy-1H-pyrazol-3-yl)-1-oxoisoindolin-2-yl)piperidine-2,6-dione], `CCn1nc(-c2ccc3c(c2)CN(C2CCC(=O)NC2=O)C3=O)cc1OC` (stereo not shown) [Compound I-34, 3-(5-(1-ethyl-5-methoxy-1H-pyrazol-3-yl)-1-oxoisoindolin-2-yl)piperidine-2,6-dione] is lower in “IKZF2 % protein reduction at 10 μM, 24 h” value: 80% for the first, 50% for the second.

Compared with `CCNc1ccc(-c2ccc3c(c2)CN(C2CCC(=O)NC2=O)C3=O)nn1` (stereo not shown) [Compound I-22, 3-(5-(6-(ethylamino)pyridazin-3-yl)-1-oxoisoindolin-2-yl)piperidine-2,6-dione], `CCN(CC)Cc1ccc(-c2ccc3c(c2)CN(C2CCC(=O)NC2=O)C3=O)nn1` (stereo not shown) [Compound I-43, 3-(5-(6-((diethylamino)methyl)pyridazin-3-yl)-1-oxoisoindolin-2-yl)piperidine-2,6-dione] is lower in “IKZF2 % protein reduction at 10 μM, 24 h” value: 60% for the first, 40% for the second.

Going from `COc1cc(Cc2ccccc2)nnc1-c1ccc2c(c1)CN(C1CCC(=O)NC1=O)C2=O` (stereo not shown) [Compound I-28, 3-(5-(6-benzyl-4-methoxypyridazin-3-yl)-1-oxoisoindolin-2-yl)piperidine-2,6-dione] to `O=C1CCC(N2Cc3cc(-c4cccnn4)ccc3C2=O)C(=O)N1` (stereo not shown) [Compound I-42, 3-(1-oxo-5-(pyridazin-3-yl)isoindolin-2-yl)piperidine-2,6-dione], the “IKZF2 % protein reduction at 10 μM, 24 h” value rises from 73% to 80%.

Compared with `CO[C@H]1CC[C@H](Cc2ccc(-c3ccc4c(c3)CN(C3CCC(=O)NC3=O)C4=O)nn2)CC1` (stereo partly shown) [Compound I-25], `O=C1CCC(N2Cc3cc(-c4nc5ncccc5[nH]4)ccc3C2=O)C(=O)N1` (stereo not shown) [Compound I-46, 3-(5-(1H-imidazo[4,5-b]pyridin-2-yl)-1-oxoisoindolin-2-yl)piperidine-2,6-dione] is higher in “IKZF2 % protein reduction at 10 μM, 24 h” value: 68% for the first, 80% for the second.

Compared with `O=C1CCC(N2Cc3cc(-c4nc5[nH]c(=O)ccc5[nH]4)ccc3C2=O)C(=O)N1` (stereo not shown) [Compound I-6, 3-(1-oxo-5-(5-oxo-4,5-dihydro-1H-imidazo[4,5-b]pyridin-2-yl)isoindolin-2-yl)piperidine-2,6-dione], `CCn1nc(-c2ccc3c(c2)CN(C2CCC(=O)NC2=O)C3=O)cc1C(F)(F)F` (stereo not shown) [Compound I-7, 3-(5-(1-ethyl-5-(trifluoromethyl)-1H-pyrazol-3-yl)-1-oxoisoindolin-2-yl)piperidine-2,6-dione] is lower in “IKZF2 % protein reduction at 10 μM, 24 h” value: 75% for the first, 10% for the second.

same assay, conditions: 10 μM, 24 h, Prolabel assay, 293GT cells

Compared with `Cc1c[nH]nc1-c1ccc2c(c1)CN(C1CCC(=O)NC1=O)C2=O` (stereo not shown) [Compound I-3, 3-(5-(4-methyl-1H-pyrazol-3-yl)-1-oxoisoindolin-2-yl)piperidine-2,6-dione], `Cc1cc(-c2ccc3c(c2)CN(C2CCC(=O)NC2=O)C3=O)n[nH]1` (stereo not shown) [Compound I-16, 3-(5-(5-methyl-1H-pyrazol-3-yl)-1-oxoisoindolin-2-yl)piperidine-2,6-dione] is lower in “IKZF2 % protein reduction at 10 μM, 24 h” value: 50% for the first, 0% for the second.

Going from `O=C1CCC(N2Cc3cc(-c4ccn(Cc5ccccc5)n4)ccc3C2=O)C(=O)N1` (stereo not shown) [Compound I-9, 3-(5-(1-benzyl-1H-pyrazol-3-yl)-1-oxoisoindolin-2-yl)piperidine-2,6-dione] to `O=C1CCC(N2Cc3cc(-c4cn(Cc5ccccc5)cn4)ccc3C2=O)C(=O)N1` (stereo not shown) [Compound I-1, 3-(5-(1-benzyl-1H-imidazol-4-yl)-1-oxoisoindolin-2-yl)piperidine-2,6-dione], the “IKZF2 % protein reduction at 10 μM, 24 h” value falls from 20% to 0%.

Going from `Cc1cn(Cc2ccccc2)nc1-c1ccc2c(c1)CN(C1CCC(=O)NC1=O)C2=O` (stereo not shown) [Compound I-17, 3-(5-(1-benzyl-4-methyl-1H-pyrazol-3-yl)-1-oxoisoindolin-2-yl)piperidine-2,6-dione] to `Cc1cc(-c2ccc3c(c2)CN(C2CCC(=O)NC2=O)C3=O)nn1Cc1ccccc1` (stereo not shown) [Compound I-4, 3-(5-(1-benzyl-5-methyl-1H-pyrazol-3-yl)-1-oxoisoindolin-2-yl)piperidine-2,6-dione], the “IKZF2 % protein reduction at 10 μM, 24 h” value falls from 60% to 50%.

Going from `O=C1CCC(N2Cc3cc(-c4nn(Cc5ccccc5)c5ccccc45)ccc3C2=O)C(=O)N1` (stereo not shown) [Compound I-19, 3-(5-(1-benzyl-1H-indazol-3-yl)-1-oxoisoindolin-2-yl)piperidine-2,6-dione] to `CCn1nc(-c2ccc3c(c2)CN(C2CCC(=O)NC2=O)C3=O)c2ccccc21` (stereo not shown) [Compound I-11, 3-(5-(1-ethyl-1H-indazol-3-yl)-1-oxoisoindolin-2-yl)piperidine-2,6-dione], the “IKZF2 % protein reduction at 10 μM, 24 h” value rises from 0% to 30%.

Compared with `O=C1CCC(N2Cc3cc(-c4n[nH]c5ccccc45)ccc3C2=O)C(=O)N1` (stereo not shown) [Compound I-18, 3-(5-(1H-indazol-3-yl)-1-oxoisoindolin-2-yl)piperidine-2,6-dione], `O=C1CCC(N2Cc3cc(-c4cc[nH]n4)ccc3C2=O)C(=O)N1` (stereo not shown) [Compound I-8, 3-(1-oxo-5-(1H-pyrazol-3-yl)isoindolin-2-yl)piperidine-2,6-dione] is lower in “IKZF2 % protein reduction at 10 μM, 24 h” value: 40% for the first, 10% for the second.

Compared with `Cc1cc(-c2ccc3c(c2)CN(C2CCC(=O)NC2=O)C3=O)nn1Cc1ccc(C#N)cc1` (stereo not shown) [Compound I-5, 4-((3-(2-(2,6-dioxopiperidin-3-yl)-1-oxoisoindolin-5-yl)-5-methyl-1H-pyrazol-1-yl)methyl)benzonitrile], `O=C1CCC(N2Cc3cc(-c4nn(Cc5ccccc5)c5c4CCCC5)ccc3C2=O)C(=O)N1` (stereo not shown) [Compound I-15, 3-(5-(1-benzyl-4,5,6,7-tetrahydro-1H-indazol-3-yl)-1-oxoisoindolin-2-yl)piperidine-2,6-dione] is higher in “IKZF2 % protein reduction at 10 μM, 24 h” value: 35% for the first, 50% for the second.

Going from `O=C1CCC(N2Cc3cc(-c4ccc(Cc5ccccc5)nn4)ccc3C2=O)C(=O)N1` (stereo not shown) [Compound I-24, 3-(5-(6-benzylpyridazin-3-yl)-1-oxoisoindolin-2-yl)piperidine-2,6-dione] to `CCNc1cnnc(-c2ccc3c(c2)CN(C2CCC(=O)NC2=O)C3=O)c1` (stereo not shown) [Compound I-21, 3-(5-(5-(ethylamino)pyridazin-3-yl)-1-oxoisoindolin-2-yl)piperidine-2,6-dione], the “IKZF2 % protein reduction at 10 μM, 24 h” value falls from 90% to 60%.
